{"source": "patent US9707417B2", "about": "“Use of benzotropolone derivatives as UV absorbers and antioxidants and their use in sunscreens and/or cosmetic compositions” (BASF SE, priority 2008, dated 2017)", "key": {"[1]": {"assay": "UV shielding properties (UV spectra in ethanol)", "type": "physicochemical", "design": "Absorption maximum 1 λmax / Absorption maximum 2 λmax: unit not given here", "conditions": "UV spectra in ethanol", "excerpt": "The UV shielding properties of the benzotropolone derivatives were investigated by measuring their UV spectra in ethanol.\nIn the following table the investigated absorption maxima (λmax) together with the corresponding A^1%1cm values are listed."}, "[2]": {"assay": "Measurement of photostability (irradiation of highly diluted solution of the UV-filter, analysis by UV-spectroscopy)", "type": "physicochemical", "conditions": "for Half time: photostability, diluted solution in ethanol, first order kinetic model, half-life under conditions of COLIPA standard sun irradiation", "description": "The method used for assessment of photostability is based on the irradiation of a highly diluted solution of the UV-filter.\nThe analysis after certain doses of irradiation is performed by UV-spectroscopy. The concentration of the UV-absorber in ethanol is adjusted to values between 1·10^−5 and 1·10^−6 mol/l, such that the absorbance of the solution in cuvette of 1 cm optical path length is ≦than 0.2. The mutual protection of filter molecules can be excluded under such conditions.\nPrior to irradiation of a sample the UVB-intensity at the sample position is measured with a UV-radiometer (RM-12, Dr. Gröbel Electronic GmbH).\nThis radiometer is calibrated by comparison with a measurement of the spectral output of the metal halide lamp (including light guide and cut-off filter) using a wavelength-resolved radiometer (Gamma C11).\nTherefore the relationship of the reading of the RM-12 radiometer and the corresponding spectral output of the lamp is known, and one is able to determine the wavelength-resolved intensities by measuring the UVB-intensity. By changing the distance between the end of the light guide and the cuvette, the UVB-intensity can be varied in the range of 100 μW/cm^2 and 4500 μW/cm^2.\nFor sample irradiation the highest possible intensity was used (4.5 mW/cm^2 UVB-intensity measured with the Macam 103 radiometer).\nThe irradiation time is varied from 0 to 180 min.\nThe dose the sample has received after 180 min corresponds to 60 MED.\nDuring irradiation the sample was stirred. After certain intervals of irradiation, the samples were analyzed in a UV-spectrometer (Perkin Elmer, Lambda 16).\nFrom the absorbance values at each dose of irradiation the concentration may be calculated using Lambert-Beer's law.\nIn order to get the half-life of the substance, a first order kinetic model was fitted to the experimental data. Since the UV-spectrum of the lamp and the UV-spectrum of the COLIPA standard sun are known, one can calculate the respective half-life of the UV-absorber under conditions of COLIPA standard sun irradiation [Bernd Herzog, Stefan Müller, Myriam Sohn, Uli Osterwalder, “New Insight and Prediction of Photostability of Sunscreens”, SÖFW Journal 133, 26-36 (2007)]."}, "Solubility in water": {"assay": "Solubility in water", "type": "physicochemical"}, "[3]": {"assay": "DPPH assay (antioxidative / antiradical activity)", "type": "biochemical", "conditions": "comparison with vitamin C, vitamin E, resveratrol", "from_the_text": "For tests of antioxidative activity, the DPPH assay is used. DPPH (2,2-Diphenyl-1-picryl-hydrazyl) is a stable radical, which absorbs in its radical form at 515 nm. Upon reduction by an antioxidant (AH), the absorption disappears: DPPH.+AH→DPPH—H+A. (1)\nThe rate of reaction (1) can be rather different for different antioxidants.\nIn the test, the ratio of the molar concentrations of the antioxidant and DPPH is varied (this ratio is named “EC”=efficient concentration), and the concentration of DPPH in the equilibrium state is measured for each ratio. […] The smaller the EC50 value, the more efficient is the antioxidant. Thus, the inverse, 1/EC50, can be used to quantify the antiradical power.\nSolutions of DPPH and the antioxidants in ethanol are prepared separately and added together for starting the reaction (0.5 cm^3 of a 250 μM antioxidant solution is added to 2.5 cm^3 of a 100 μM DPPH solution). The absorption is measured using a Perkin Elmer Lambda 20 spectrophotometer."}}}
{"smiles": "COC(=O)c1cc(O)c(=O)c2c(O)c(O)c(OCCCO[C@@H]3O[C@H](CO)[C@@H](O)[C@H](O)[C@H]3O)cc2c1", "note": "[Compound B-13]", "values": [{"measurement": "Absorption maximum 1 A^1%1 cm", "setting": "[1]", "value": 573}, {"measurement": "Absorption maximum 1 λmax", "setting": "[1]", "value": 310}, {"measurement": "Absorption maximum 2 A^1%1 cm", "setting": "[1]", "value": 208}, {"measurement": "Absorption maximum 2 λmax", "setting": "[1]", "value": 404}, {"measurement": "photostability (in words)", "setting": "[2]", "value": "high photostability"}, {"measurement": "Half time", "setting": "[2]", "value": 51.3, "unit": "h"}, {"measurement": "Solubility in water", "setting": "Solubility in water", "value": 10.467, "unit": "%"}, {"measurement": "antioxidant/radical scavenging power compared to state-of-the-art antioxidants (in words)", "setting": "[3]", "value": "more effective in the DPPH assay than the state-of-the-art antioxidant resveratrol"}]}
{"smiles": "O=C(O)CCCCCOc1cc2cc(C(=O)O)cc(O)c(=O)c2c(O)c1O", "note": "[Compound B-19]", "values": [{"measurement": "Absorption maximum 1 A^1%1 cm", "setting": "[1]", "value": 726}, {"measurement": "Absorption maximum 1 λmax", "setting": "[1]", "value": 308}, {"measurement": "Absorption maximum 2 A^1%1 cm", "setting": "[1]", "value": 236}, {"measurement": "Absorption maximum 2 λmax", "setting": "[1]", "value": 397}, {"measurement": "photostability (in words)", "setting": "[2]", "value": "high photostability"}, {"measurement": "Half time", "setting": "[2]", "value": 40.1, "unit": "h"}]}
{"smiles": "CCCCCCCC/C=C\\CCCCCCCCOc1cc2cc(C(=O)OC)cc(O)c(=O)c2c(O)c1O", "note": "[Compound B-32]", "values": [{"measurement": "Absorption maximum 1 A^1%1 cm", "setting": "[1]", "value": 574}, {"measurement": "Absorption maximum 1 λmax", "setting": "[1]", "value": 310}, {"measurement": "Absorption maximum 2 A^1%1 cm", "setting": "[1]", "value": 203}, {"measurement": "Absorption maximum 2 λmax", "setting": "[1]", "value": 404}, {"measurement": "photostability (in words)", "setting": "[2]", "value": "high photostability"}, {"measurement": "Half time", "setting": "[2]", "value": 16.6, "unit": "h"}]}
